Measurements published in US5506102A (priority 1993, dated 1996).
pIC50: −log10 of the molar value. Entries after “also recorded” stand apart in the source; their conditions may differ.

Legend:
ER = ER transcriptional activity on MMTV-ERE-LUC in HepG2 and HS578T cells; assay type: cell-based; details: data not shown
[1] = system: glucocorticoid receptor (GR); test: GR transcriptional activity on MMTV-LUC, CV-1 cells, GR co-expressed with PR-A; assay type: cell-based
Description: (§1) Cells were seeded in 12-well, 96-well or 10 cm tissue culture plates. […] 20 μg of DNA/ml of transfection buffer were used in each transfection reaction. In this mix, the concentration of the luciferase plasmids and that of the internal control plasmid pCH110 (Pharmacia, Inc.), which contains the gene for the β-galactosidase enzyme, remained constant ([…] of each plasmid DNA), while the receptor plasmid concentration varied as indicated for each experiment. Different amounts of receptor parental plasmid, pSV2-neo (Dr. Bert O'Malley, Baylor College of Medicine, Houston, Tex.) was included to keep constant the total amount of the SV40 enhancer vectors. pGEM4 plasmid DNA (Promega Biotech, Madison, Wis.) was added to balance the total DNA concentration to 20 g/reaction. For the 96-well plate experiments, transfections were performed on a Biomek 1000 Automated Laboratory Workstation (Beckman Instruments, Fullerton, Calif.).
(§2) Cells were seeded 24 hours prior to transfection in the fiat-bottom tissue culture plates ([…]) in phenol red-free DMEM containing 10% FCS. […] Using calcium phosphate co-precipitation, DNA solution was added dropwise with vortexing into an equal volume of 2X HBS pH 6.9 (280 mM NaCl. 50 mM HEPES, 1.5 mM Na2 HPO4) and precipitates were allowed to form for 20 minutes. Cells were transfected ( […] of DNA mix/well) for 6 hours and then washed with phosphate-bufferedsaline (PBS) to remove the precipitate. Cells were incubated for an additional 24 hours in phenol red-free medium containing 10% charcoal-treated FCS, with or without hormones as indicated in the text. Cell extracts were prepared as described by Berger et al., Supra, and assayed for luciferase and β-galactosidase activities. All determinations were performed in triplicates in at least two independent experiments, and were normalized for transfection efficiency by using β-galactosidase as an internal control.

human androgen receptor [2] = biological target: T1, human androgen receptor (Homo sapiens, UniProt P10275); test: AR transcriptional activity on MMTV-LUC, CV-1 cells, AR co-expressed with PR-A; assay type: cell-based; details: AR plus PR-A, FIG. 10B
T1 sequence (P10275 1-920): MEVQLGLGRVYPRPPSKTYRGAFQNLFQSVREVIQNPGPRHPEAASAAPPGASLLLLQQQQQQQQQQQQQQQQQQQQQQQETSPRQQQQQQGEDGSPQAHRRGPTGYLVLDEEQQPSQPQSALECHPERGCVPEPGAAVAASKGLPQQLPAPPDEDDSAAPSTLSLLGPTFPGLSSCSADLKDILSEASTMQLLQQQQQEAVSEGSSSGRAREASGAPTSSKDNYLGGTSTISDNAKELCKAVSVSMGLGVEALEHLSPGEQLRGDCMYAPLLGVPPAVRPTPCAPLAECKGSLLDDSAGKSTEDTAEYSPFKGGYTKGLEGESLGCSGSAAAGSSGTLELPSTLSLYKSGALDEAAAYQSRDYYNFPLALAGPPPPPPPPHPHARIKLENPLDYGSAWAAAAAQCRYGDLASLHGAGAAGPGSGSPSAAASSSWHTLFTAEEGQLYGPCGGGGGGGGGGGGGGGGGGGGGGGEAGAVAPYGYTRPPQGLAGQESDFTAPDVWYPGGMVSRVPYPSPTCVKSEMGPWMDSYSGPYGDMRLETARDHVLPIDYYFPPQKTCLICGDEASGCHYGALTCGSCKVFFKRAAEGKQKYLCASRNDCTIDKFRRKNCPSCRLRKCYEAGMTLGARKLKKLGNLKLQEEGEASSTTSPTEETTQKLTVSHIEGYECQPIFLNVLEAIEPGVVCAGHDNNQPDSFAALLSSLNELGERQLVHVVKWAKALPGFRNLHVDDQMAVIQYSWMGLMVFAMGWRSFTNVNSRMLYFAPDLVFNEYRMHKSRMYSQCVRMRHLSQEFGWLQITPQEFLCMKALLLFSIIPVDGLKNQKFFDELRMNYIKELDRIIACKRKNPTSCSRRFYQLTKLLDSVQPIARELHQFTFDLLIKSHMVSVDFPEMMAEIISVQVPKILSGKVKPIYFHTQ
Description: (§3) FIGS. 10A-10B are a series of graphs showing CV-1 cells that were transiently transfected with an expression vector for the human androgen receptor (pRShAR) alone, or in combination with phPR-A together with 5 µg/ml of the MMTV-LUC reporter and 5 µg/ml of pCH110 as an internal control. […] The relative luciferase activity is calculated by dividing the normalized luciferase value at a given point by that obtained in the absence of transfected receptor or ligand. […] The data are presented as percent (%) activation, where 100% represents the maximal induction achieved by human androgen receptor at 10^ -8 M DHT. The experimental data represents mean values +/- the average deviation from the mean of quadruplicate estimations;
(§4) Cells were seeded in 12-well, 96-well or 10 cm tissue culture plates. […] 20 μg of DNA/ml of transfection buffer were used in each transfection reaction. In this mix, the concentration of the luciferase plasmids and that of the internal control plasmid pCH110 (Pharmacia, Inc.), which contains the gene for the β-galactosidase enzyme, remained constant ([…] of each plasmid DNA), while the receptor plasmid concentration varied as indicated for each experiment. […]

PR = details: cited from earlier work
human androgen receptor [3] = biological target: T1, human androgen receptor; test: AR transcriptional activity on MMTV-LUC, CV-1 cells, AR alone; assay type: cell-based; details: FIG. 10
Description: as §3, §4

AR = details: stated without data; cited from earlier work
human estrogen receptor [4] = test: ER transcriptional activity on MMTV-ERE-LUC, CV-1 cells, ER co-expressed with PR-A; assay type: cell-based
Description: (§5) All values were normalized for transfection efficiency by simultaneous estimation of luciferase and β-galactocidase activities. The relative luciferase activity is calculated by dividing the normalized luciferase value at a given point by that obtained in the absence of transfected receptor or ligand. Data shown represent the mean +/- the average deviation from the mean of triplicate estimations.
(§6) Experimental protocols and data calculation are as described in FIG. 11. The experiment detailed above is representative of independent assays (N>3). Data shown represent the mean +/- the average deviation from the mean of triplicate estimations.
Vegeto et al., supra. Cells were plated into 96-well tissue culture plates. The vector DNA was introduced into the CV-1 cells using calcium phosphate coprecipitation as described herein. More specifically, 20 μg of DNA/ml of transfection buffer were used in each transfection. Each transfection mix included 0.5 μg of pRST7hER, 9.5 μg of MMTV-ERE-LUC, 5 μg of pCH110, (which contains the gene for β-galactosidase) as an internal control and 5 μg of PGEM4 DNA as a carrier. Depending on the experiment, 0.1 μg pSVhPR-A or pSVhPR-B and an amount of pSVXV2neo (Dr. Bert O'Malley, Baylor College of Medicine) to bring the total amount of DNA to 20 μg was added. The concentration of pXVhPR-A vector chosen was determined by performing the experiment at several different concentrations of vector, and then using that concentration that was optimal for transcriptional readout. The concentration of pSVhPR-B vector was chosen based upon the amount required to give an identical amount of immunoreactive PR-A and PR-B. After transfections using a Biomek 1000 automated laboratory workstation, the cells were incubated with the precipitate for 6 hours. Cells were washed with PBS and incubated for 40 hours with or without hormones as indicated. Cell extracts were prepared as previously described herein and assayed for luciferase (LUC) and β-galactosidase activities. The Normalized LUC activity was calculated by dividing the raw luciferase (×10^4) units for each point by the β-galactosidase activity [(OD415 nm ×10^5)/time min.] at that point.

human estrogen receptor [5] = biological target: T2, human estrogen receptor (Homo sapiens, UniProt P03372); test: ER transcriptional activity on MMTV-ERE-LUC, CV-1 cells, ER co-expressed with PR-B; assay type: cell-based; details: FIG. 11B
T2 construct: expressed in transfected cells; host or cells: CV-1
T2 sequence (P03372 1-595): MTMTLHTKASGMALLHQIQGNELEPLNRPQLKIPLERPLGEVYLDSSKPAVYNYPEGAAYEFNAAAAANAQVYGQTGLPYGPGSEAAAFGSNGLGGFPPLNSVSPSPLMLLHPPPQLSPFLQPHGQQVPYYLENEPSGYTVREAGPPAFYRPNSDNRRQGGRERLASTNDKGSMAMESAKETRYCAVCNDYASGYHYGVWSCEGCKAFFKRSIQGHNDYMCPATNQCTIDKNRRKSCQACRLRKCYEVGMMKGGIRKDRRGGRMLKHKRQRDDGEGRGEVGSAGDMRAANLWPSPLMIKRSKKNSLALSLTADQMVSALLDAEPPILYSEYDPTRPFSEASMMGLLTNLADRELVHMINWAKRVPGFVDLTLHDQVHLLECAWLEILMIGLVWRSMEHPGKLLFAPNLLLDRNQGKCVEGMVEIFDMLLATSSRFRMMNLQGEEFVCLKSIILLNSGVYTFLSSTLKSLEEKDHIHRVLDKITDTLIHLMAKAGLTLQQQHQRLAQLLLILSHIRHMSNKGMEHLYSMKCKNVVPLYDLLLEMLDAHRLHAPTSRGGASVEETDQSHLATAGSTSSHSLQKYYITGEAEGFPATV
Description: as §5
(§7) Vegeto et al., supra. Cells were plated into 96-well tissue culture plates. The vector DNA was introduced into the CV-1 cells using calcium phosphate coprecipitation as described herein. More specifically, 20 μg of DNA/ml of transfection buffer were used in each transfection. Each transfection mix included 0.5 μg of pRST7hER, 9.5 μg of MMTV-ERE-LUC, 5 μg of pCH110, (which contains the gene for β-galactosidase) as an internal control and 5 μg of PGEM4 DNA as a carrier. […] The concentration of pXVhPR-A vector chosen was determined by performing the experiment at several different concentrations of vector, and then using that concentration that was optimal for transcriptional readout. […] The Normalized LUC activity was calculated by dividing the raw luciferase (×10^4) units for each point by the β-galactosidase activity [(OD415 nm ×10^5)/time min.] at that point.

human estrogen receptor [6] = biological target: T2, human estrogen receptor; test: ER transcriptional activity on MMTV-ERE-LUC, CV-1 cells, ER alone; assay type: cell-based; details: 10^-7 M 17-β-estradiol, FIG. 11B
Description: as §5, §6
as §7, with “transfection.” for “transfection. Each transfection mix included 0.5 μg of pRST7hER, 9.5 μg of MMTV-ERE-LUC, 5 μg of pCH110, (which contains the gene for β-galactosidase) as an internal control and 5 μg of PGEM4 DNA as a carrier.”

[7] = biological target: T3, glucocorticoid receptor (GR) (Homo sapiens, UniProt P04150)
T3 sequence (P04150 1-777): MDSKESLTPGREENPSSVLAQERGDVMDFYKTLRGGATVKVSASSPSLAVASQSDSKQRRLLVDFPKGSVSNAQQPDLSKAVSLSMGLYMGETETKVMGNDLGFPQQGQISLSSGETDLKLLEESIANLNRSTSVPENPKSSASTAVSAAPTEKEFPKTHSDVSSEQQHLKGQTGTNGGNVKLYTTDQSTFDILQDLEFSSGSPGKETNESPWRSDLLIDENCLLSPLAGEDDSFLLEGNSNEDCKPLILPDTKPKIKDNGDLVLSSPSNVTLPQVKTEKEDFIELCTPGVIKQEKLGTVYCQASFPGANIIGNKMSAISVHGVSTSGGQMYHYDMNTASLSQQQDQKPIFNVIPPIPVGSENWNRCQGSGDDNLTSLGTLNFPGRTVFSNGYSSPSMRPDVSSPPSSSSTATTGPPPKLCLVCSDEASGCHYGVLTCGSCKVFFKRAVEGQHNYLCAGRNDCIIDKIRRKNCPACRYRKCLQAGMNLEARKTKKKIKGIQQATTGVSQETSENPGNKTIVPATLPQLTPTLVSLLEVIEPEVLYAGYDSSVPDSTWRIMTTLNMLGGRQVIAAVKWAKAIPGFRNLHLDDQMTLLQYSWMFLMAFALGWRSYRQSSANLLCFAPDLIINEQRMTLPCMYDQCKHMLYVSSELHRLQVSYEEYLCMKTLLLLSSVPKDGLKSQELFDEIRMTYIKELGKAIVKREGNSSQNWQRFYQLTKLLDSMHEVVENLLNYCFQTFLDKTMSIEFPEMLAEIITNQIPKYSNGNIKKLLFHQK
Description: as §1, §2

Compound: CN(C)c1ccc([C@H]2C[C@]3(C)[C@@H](CC[C@]3(O)CCCO)[C@@H]3CCC4=CC(=O)CCC4=C32)cc1 [ZK98299]
- anti-estrogenic activity (ER; HS578T cells): both anti-progestins functioned as anti-estrogens
- anti-estrogenic activity (ER; HepG2 cells): neither anti-progestin exhibited any anti-estrogenic activity
- inhibition of GR function via PR-A ([1]; MMTV promoter, dexamethasone present, FIG. 8A): mediated an inhibition of GR function; also recorded: promotes PR-A repressor function
- effect on DHT-induced AR activity in the presence of PR-A (human androgen receptor [2]): addition of PR-A to the cells increased this compound's sensitivity
- effect on PR DNA binding (PR): retards DNA binding; also recorded: interferes with DNA binding
- effect on DHT-induced AR activity (human androgen receptor [3]): minimal direct effects on AR transcriptional activity
- affinity for AR (AR): low affinity for AR
- pIC50 (human estrogen receptor [4]; 10^-7 M 17-β-estradiol, read-out: half maximal inhibition (IC50) of ER in the presence of hPR-A): 8.52
- efficacy compared to the pure anti-estrogen ICI-164,384 (human estrogen receptor [4]; PR-A co-expressed, 100% = 10^-7 M 17-β-estradiol + 10^-6 M ICI-164,384, FIG. 12): 70%

Compound: CCCCN(C)C(=O)CCCCCCCCCC[C@@H]1Cc2cc(O)ccc2[C@H]2CC[C@]3(C)[C@@H](O)CC[C@H]3[C@H]12 [ICI-164,384]
- effect of hPR-B co-expression on activity of ICI-164,384 (human estrogen receptor [5]): did not affect the activity
- inhibition of 17-β-estradiol induced ER transcriptional activation (human estrogen receptor [6]): can be inhibited by addition of the pure anti-estrogen ICI-164,384
- effect of hPR-A co-expression on activity of ICI-164,384 (human estrogen receptor [4]; FIG. 11B): did not affect the activity

Compound: C[C@@H]1C[C@H]2[C@@H]3CCC4=CC(=O)C=C[C@]4(C)[C@@]3(F)[C@@H](O)C[C@]2(C)[C@@]1(O)C(=O)CO [dexamethasone]
- dexamethasone induction of GR activity, of control levels [1]: about 53%
- maximally activated GR (100% value) [7]: > 450 normalized response
- maximal activity of GR (100% value) ([7]; cv-1 cells, 0.01 µM): > 450 fold normalized response
- induction of MMTV promoter activity ([7]; cv-1 cells, 24 h, 0.1 µM): 450 fold

Compound: CC(=O)O[C@]1(C(C)=O)CC[C@H]2[C@@H]3C[C@H](C)C4=CC(=O)CC[C@]4(C)[C@H]3CC[C@@]21C [medroxyprogesterone acetate, Medroxyprogesterone acetate]
- anti-estrogen activity of PR agonists (human estrogen receptor [4]; PR-A co-expressed, 10^-7 M 17-β-estradiol, FIG. 13): considerably less effective
